# Experimental data as given in patent publication EP4596574A1, “GLP-1/GCG/GIP TRIPLE-RECEPTOR AGONIST AND USE THEREOF” (Sunshine Lake Pharma Co., Ltd., priority 2022, dated 2024).
# pEC50: −log10 of the molar value. Marks after values point to notes of the source that are not given here.
# Assays:
# GLP-1R = molecular target: T1, GLP-1R (Homo sapiens, UniProt P43220); assay: In vitro cell activity, cAMP production in HEK293 cells expressing GLP-1R; assay type: cell-based; conditions: HEK293-GLP-1R cells, cAMP; read-out: GLP-1R (EC50)
# T1 construct: expressed in transfected cells; host or cells: HEK293 (HEK293-GLP-1R)
# Experimental: (§1) After they were completely thawed within 1.5 minutes, the cells were added dropwise into a 15 mL centrifuge tube containing 8 mL of warm culture medium in a clean bench. The tubes were centrifuged at 900 rpm for 5 minutes, the supernatant was discarded, and the cells were resuspended in 1 mL of complete culture medium (by pipetting 15 times). 20 µL of the suspension was immediately taken and mixed with an equal volume of trypan blue. 20 µL was taken to count the number of live cells, and the cells were diluted to 4×10^5 cells/mL with complete culture medium. • 4) The 384-well plate was divided into GLP-1R cell, GCGR cell and GIPR cell areas. The cell suspension was added to the wells of the corresponding area at 5 µL per well using a 12-channel variable-channel adjustable dispenser. […] Then, the diluted cAMP-d2 working solution and anti-cAMP-crytate working solution were mixed evenly in a ratio of 1:1, and 10 µL was added to each well of the sample group. The wells were covered with white lids and placed at room temperature in the dark for 1 hour or at 4 °C overnight. • 6) The fluorescence values at 665 nm and 620 nm were detected in a multifunctional microplate reader. In GraphPad Prism 6, the signal ratio and sample concentration were nonlinearly fitted using a four-parameter equation to obtain the EC50 value.
# GCGR = molecular target: T2, GCGR (Homo sapiens, UniProt P47871); assay: In vitro cell activity, cAMP production in HEK293 cells expressing GCGR; assay type: cell-based; conditions: HEK293-GCGR cells, cAMP; read-out: GCGR (EC50)
# T2 construct: expressed in transfected cells; host or cells: HEK293 (HEK293-GCGR)
# Experimental: as §1
# GIPR = molecular target: T3, GIPR (Homo sapiens, UniProt P48546); assay: In vitro cell activity, cAMP production in HEK293 cells expressing GIPR; assay type: cell-based; conditions: HEK293-GIPR cells, cAMP; read-out: GIPR (EC50)
# T3 construct: expressed in transfected cells; host or cells: HEK293 (HEK293-GIPR)
# T3 sequence (P48546 22-466): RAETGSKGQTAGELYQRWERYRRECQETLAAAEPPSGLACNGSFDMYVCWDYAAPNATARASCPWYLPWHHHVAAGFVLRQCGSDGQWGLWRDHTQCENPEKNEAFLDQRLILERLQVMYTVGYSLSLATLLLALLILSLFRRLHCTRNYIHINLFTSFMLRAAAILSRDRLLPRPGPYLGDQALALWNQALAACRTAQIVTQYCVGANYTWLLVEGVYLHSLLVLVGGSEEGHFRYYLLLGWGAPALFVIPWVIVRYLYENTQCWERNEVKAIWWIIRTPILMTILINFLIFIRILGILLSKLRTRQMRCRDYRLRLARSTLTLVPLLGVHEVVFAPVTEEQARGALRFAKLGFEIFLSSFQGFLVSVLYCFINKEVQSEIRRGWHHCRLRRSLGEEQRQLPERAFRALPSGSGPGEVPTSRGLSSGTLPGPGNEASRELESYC
# Experimental: as §1, with “The wells were covered with white lids and placed at room temperature in the dark for 1 hour or at 4 °C overnight. • 6) The fluorescence values at 665 nm and 620 nm were detected in a multifunctional microplate reader.” left out
# [1] = Long-term repeated administration in diet-induced obese C57BL/6 mice (DIO); assay type: in vivo, C57/BL6 mice
# Excerpt: Experimental methods: C57/BL6 mice were randomly divided into a normal group (NFD) and a model group (HFD) at the fifth week of age. The normal group was fed with ordinary maintenance feed, while the other groups were fed with high-fat feed D12492. The body weight and food intake of mice were monitored every 3 weeks. After 16 weeks of feeding, the body weights of mice in the model group and the normal group were (49.0±2.3) g and (31.0±2.0) g, respectively, and the difference between the two groups was statistically significant. […] Body weight and food intake were measured before each administration. After 3 weeks of administration, an intraperitoneal glucose tolerance test was performed. The mice were slaughtered and samples were collected 72 h after the last administration. The liver weight was recorded, and the liver pathological conditions and blood biochemical indexes of each group were tested.
# [2] = 10 nmol/kg s.c. once every 3 days, D7
# [3] = 10 nmol/kg s.c. once every 3 days, D10
# [4] = 10 nmol/kg s.c. once every 3 days, D13
# [5] = 10 nmol/kg s.c. once every 3 days, D16
# [6] = 10 nmol/kg s.c. once every 3 days, D19
# [7] = 10 nmol/kg s.c. once every 3 days, D22
# [8] = 10 nmol/kg s.c. once every 3 days, D25
# [9] = 10 nmol/kg s.c. once every 3 days, D28
# [10] = long-term administration 10 nmol/kg, 72 h after the last administration
# [11] = long-term administration 10 nmol/kg, blood biochemical index
# T2 sequence (P47871 26-477, species assumed): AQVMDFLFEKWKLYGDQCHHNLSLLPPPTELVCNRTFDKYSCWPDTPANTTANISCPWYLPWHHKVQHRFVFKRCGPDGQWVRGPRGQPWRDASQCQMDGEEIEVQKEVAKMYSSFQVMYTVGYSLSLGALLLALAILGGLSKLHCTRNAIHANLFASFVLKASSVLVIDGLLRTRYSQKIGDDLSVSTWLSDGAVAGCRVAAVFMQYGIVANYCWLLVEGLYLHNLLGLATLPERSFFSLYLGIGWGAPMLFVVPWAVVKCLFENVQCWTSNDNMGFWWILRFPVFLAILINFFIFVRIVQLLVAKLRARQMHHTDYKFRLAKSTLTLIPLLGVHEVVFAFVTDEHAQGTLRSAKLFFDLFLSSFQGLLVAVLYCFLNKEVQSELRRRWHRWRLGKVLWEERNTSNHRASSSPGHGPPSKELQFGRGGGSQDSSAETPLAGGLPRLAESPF
# T1 sequence (P43220 24-463, species assumed): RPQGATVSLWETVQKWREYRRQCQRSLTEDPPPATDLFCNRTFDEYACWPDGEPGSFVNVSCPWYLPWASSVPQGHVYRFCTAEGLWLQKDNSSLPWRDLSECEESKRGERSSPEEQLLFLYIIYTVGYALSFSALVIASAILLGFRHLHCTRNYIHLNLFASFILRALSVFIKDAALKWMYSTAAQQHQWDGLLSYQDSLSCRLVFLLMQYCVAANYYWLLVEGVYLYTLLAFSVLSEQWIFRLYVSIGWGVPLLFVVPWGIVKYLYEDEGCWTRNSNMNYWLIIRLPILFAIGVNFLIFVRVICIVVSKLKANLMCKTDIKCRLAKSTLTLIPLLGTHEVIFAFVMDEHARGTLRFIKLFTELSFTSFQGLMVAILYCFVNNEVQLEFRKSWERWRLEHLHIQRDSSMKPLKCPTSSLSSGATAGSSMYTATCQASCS
molecule,measurement,setting,value
CC[C@H](C)[C@H](NC(=O)[C@H](Cc1ccccc1)NC(=O)[C@H](CC(=O)O)NC(=O)[C@H](CCCNC(=N)N)NC(=O)[C@H](CCC(N)=O)NC(=O)[C@H](C)NC(=O)[C@H](CCCCNC(=O)COCCOCCNC(=O)CC[C@H](NC(=O)CCCCCCCCCCCCCCCCCCC(=O)O)C(=O)O)NC(=O)[C@H](CCC(=O)O)NC(=O)[C@H](CC(=O)O)NC(=O)[C@H](CC(C)C)NC(=O)[C@H](CC(C)C)NC(=O)[C@@H](NC(=O)[C@H](CO)NC(=O)[C@H](Cc1ccc(O)cc1)NC(=O)[C@H](CC(=O)O)NC(=O)[C@H](CO)NC(=O)[C@@H](NC(=O)[C@](C)(Cc1ccccc1F)NC(=O)[C@@H](NC(=O)CNC(=O)[C@H](Cc1c[nH]cn1)NC(=O)C(C)(C)NC(=O)[C@@H](N)Cc1ccc(O)cc1)[C@@H](C)O)[C@@H](C)O)[C@@H](C)CC)C(=O)N[C@@H](CCC(=O)O)C(=O)N[C@@H](Cc1c[nH]c2ccccc12)C(=O)N[C@@H](CC(C)C)C(=O)N[C@@H](CC(C)C)C(=O)N[C@@H](C)C(=O)NCC(=O)NCC(=O)N1CCC[C@H]1C(=O)N[C@@H](CO)C(=O)N[C@@H](CO)C(=O)NCC(=O)N[C@@H](C)C(=O)N1CCC[C@H]1C(=O)N1CCC[C@H]1C(=O)N1CCC[C@H]1C(=O)N[C@@H](CO)C(=O)O [HEC-PT65],pEC50,GLP-1R,9.20
same,pEC50,GCGR,8.87
same,pEC50,GIPR,9.80
CC[C@H](C)[C@H](NC(=O)[C@H](CO)NC(=O)[C@H](Cc1ccc(O)cc1)NC(=O)[C@H](CC(=O)O)NC(=O)[C@H](CO)NC(=O)[C@@H](NC(=O)[C@](C)(Cc1ccccc1F)NC(=O)[C@@H](NC(=O)CNC(=O)[C@H](Cc1c[nH]cn1)NC(=O)C(C)(C)NC(=O)[C@@H](N)Cc1ccc(O)cc1)[C@@H](C)O)[C@@H](C)O)C(=O)N[C@@H](CC(C)C)C(=O)N[C@@H](CC(C)C)C(=O)N[C@@H](CC(=O)O)C(=O)N[C@@H](CCC(=O)O)C(=O)N[C@@H](CCCCNC(=O)COCCOCCNC(=O)CC[C@H](NC(=O)CCCCCCCCCCCCCCCCC(=O)O)C(=O)O)C(=O)N[C@@H](C)C(=O)N[C@@H](CCC(N)=O)C(=O)NC(C)(C)C(=O)N[C@@H](CCC(=O)O)C(=O)N[C@@H](Cc1ccccc1)C(=O)N[C@H](C(=O)N[C@@H](CCC(=O)O)C(=O)N[C@@H](Cc1c[nH]c2ccccc12)C(=O)N[C@@H](CC(C)C)C(=O)N[C@@H](CC(C)C)C(=O)N[C@@H](C)C(=O)NCC(=O)NCC(=O)N1CCC[C@H]1C(=O)N[C@@H](CO)C(=O)N[C@@H](CO)C(=O)NCC(=O)N[C@@H](C)C(=O)N1CCC[C@H]1C(=O)N1CCC[C@H]1C(=O)N1CCC[C@H]1C(=O)N[C@@H](CO)C(N)=O)[C@@H](C)CC [HEC-PT107],pEC50,GLP-1R,9.57
same,pEC50,GCGR,8.45
same,pEC50,GIPR,10.10
CC[C@H](C)[C@H](NC(=O)[C@H](Cc1ccccc1)NC(=O)[C@H](C)NC(=O)[C@H](CCC(N)=O)NC(=O)[C@H](CCC(N)=O)NC(=O)[C@H](CCCNC(=N)N)NC(=O)[C@H](CCCCNC(=O)COCCOCCNC(=O)CC[C@H](NC(=O)CCCCCCCCCCCCCCCCC(=O)O)C(=O)O)NC(=O)[C@H](CCC(=O)O)NC(=O)[C@H](CC(=O)O)NC(=O)[C@H](CC(C)C)NC(=O)[C@H](CC(C)C)NC(=O)[C@@H](NC(=O)[C@H](CO)NC(=O)[C@H](Cc1ccc(O)cc1)NC(=O)[C@H](CC(=O)O)NC(=O)[C@H](CO)NC(=O)[C@@H](NC(=O)[C@](C)(Cc1ccccc1F)NC(=O)[C@@H](NC(=O)CNC(=O)[C@H](Cc1c[nH]cn1)NC(=O)C(C)(C)NC(=O)[C@@H](N)Cc1ccc(O)cc1)[C@@H](C)O)[C@@H](C)O)[C@@H](C)CC)C(=O)N[C@@H](CCC(=O)O)C(=O)N[C@@H](Cc1ccc(O)cc1)C(=O)N[C@@H](CC(C)C)C(=O)N[C@@H](CC(C)C)C(=O)N[C@@H](CCC(=O)O)C(=O)NCC(=O)NCC(=O)N1CCC[C@H]1C(=O)N[C@@H](CO)C(=O)N[C@@H](CO)C(=O)NCC(=O)N[C@@H](C)C(=O)N1CCC[C@H]1C(=O)N1CCC[C@H]1C(=O)N1CCC[C@H]1C(=O)N[C@@H](CO)C(=O)O [HEC-PT118],pEC50,GLP-1R,8.92
same,pEC50,GCGR,9.66
same,pEC50,GIPR,9.89
semaglutide [reference compound],Cumulative food intake (g/pcs) D7,[1]; [2],14.1 g/pcs
same,Weight gain rate (%) D7,[1]; [2],-8.1±1.7%
same,Cumulative food intake (g/pcs) D10,[1]; [3],19.4 g/pcs
same,Weight gain rate (%) D10,[1]; [3],-10.8±2.2%
same,Cumulative food intake (g/each) D13,[1]; [4],25.2 g/each
same,Weight gain rate (%) D13,[1]; [4],-13.5±3.2%
same,Cumulative food intake (g/each) D16,[1]; [5],31.5 g/each
same,Weight gain rate (%) D16,[1]; [5],-14.2±3.8%
same,Cumulative food intake (g/each) D19,[1]; [6],38.1 g/each
same,Weight gain rate (%) D19,[1]; [6],-14.2±4.1%
same,Cumulative food intake (g/each) D22,[1]; [7],45.0 g/each
same,Weight gain rate (%) D22,[1]; [7],-14.5±4.5%
same,Cumulative food intake (g/each) D25,[1]; [8],51.6 g/each
same,Weight gain rate (%) D25,[1]; [8],-16.5±4.1%
same,Cumulative food intake (g/each) D28,[1]; [9],58.9 g/each
same,Weight gain rate (%) D28,[1]; [9],-18.5±5.1%
same,Cumulative food intake (g/each) D30,"[1]; 10 nmol/kg s.c. once every 3 days, D30",63.9^a g/each
same,Weight gain rate (%) D31,"[1]; 10 nmol/kg s.c. once every 3 days, D31",-17.4±4.9^a %
same,Cumulative food intake (g/pcs) D0,"[1]; 10 nmol/kg s.c., D0",2.6 g/pcs
same,Weight gain rate (%) D0,"[1]; 10 nmol/kg s.c., D0",0.0±0.0%
same,Cumulative food intake (g/pcs) D1,"[1]; 10 nmol/kg s.c., D1",2.9 g/pcs
same,Weight gain rate (%) D1,"[1]; 10 nmol/kg s.c., D1",-6.8±0.6%
same,Cumulative food intake (g/pcs) D2,"[1]; 10 nmol/kg s.c., D2",4.0 g/pcs
same,Weight gain rate (%) D2,"[1]; 10 nmol/kg s.c., D2",-7.1±1.1%
same,Cumulative food intake (g/pcs) D3,"[1]; 10 nmol/kg s.c., D3",6.4 g/pcs
same,Weight gain rate (%) D3,"[1]; 10 nmol/kg s.c., D3",-5.2±1.3%
same,Cumulative food intake (g/pcs) D4,"[1]; 10 nmol/kg s.c., D4",9.3 g/pcs
same,Weight gain rate (%) D4,"[1]; 10 nmol/kg s.c., D4",-3.8±1.3%
same,Liver index/%,[1]; [10],3.0±0.0^a %
same,Liver/g,[1]; [10],1.1±0.1^a g
same,Weight/g,[1]; [10],38.3±2.9^a g
same,ALT (U/L),[1]; [11],45.4±14.6^a U/L
same,AST (U/L),[1]; [11],131.2±19.2^a U/L
same,CHOL (mmol/L),[1]; [11],4.5±0.6^a mmol/L
same,TRIGL (mmol/L),[1]; [11],0.6±0.1^a mmol/L
